From ChEMBL document CHEMBL4507256 (2021)
pKi: −log10 of the molar value.

Columns and labels:
[1] = molecular target: Sigma non-opioid intracellular receptor 1 (Homo sapiens, UniProt Q99720); test: GPCRScan assay: inhibition of Sigma 1; design: radioligand conc. used [nm] 4.0 – 5.0, parental cells HEKT; details: for pKi: read-out: Ki
[2] = system: Tyrosine-protein kinase ABL1 (Homo sapiens), P00519 [E255K]; details: Compound concentration 1000.0 nM
[3] = system: Tyrosine-protein kinase ABL1 (Homo sapiens), P00519 [H396P]; details: Compound concentration 1000.0 nM
[4] = system: Tyrosine-protein kinase ABL1 (Homo sapiens), P00519 [Y253F]; details: Compound concentration 1000.0 nM
[5] = molecular target: Ankyrin repeat and protein kinase domain-containing protein 1 (Homo sapiens) (UniProt Q8NFD2); details: Compound concentration 1000.0 nM
[6] = molecular target: Bone morphogenetic protein receptor type-1B (Homo sapiens) (UniProt O00238); details: Compound concentration 1000.0 nM
[7] = molecular target: Cyclin-dependent kinase 4 (Homo sapiens) (UniProt P11802); details: Compound concentration 1000.0 nM
[8] = molecular target: Death-associated protein kinase 2 (Homo sapiens) (UniProt Q9UIK4); details: Compound concentration 1000.0 nM
[9] = molecular target: Vascular endothelial growth factor receptor 3 (Homo sapiens) (UniProt P35916); details: Compound concentration 1000.0 nM
[10] = molecular target: Homeodomain-interacting protein kinase 4 (Homo sapiens) (UniProt Q8NE63); details: Compound concentration 1000.0 nM
[11] = molecular target: Inhibitor of nuclear factor kappa-B kinase subunit beta (Homo sapiens) (UniProt O14920); details: Compound concentration 1000.0 nM
[12] = molecular target: Tyrosine-protein kinase ITK/TSK (Homo sapiens) (UniProt Q08881); details: Compound concentration 1000.0 nM
[13] = molecular target: Tyrosine-protein kinase JAK3 (Homo sapiens) (UniProt P52333); details: Compound concentration 1000.0 nM
[14] = molecular target: Serine/threonine-protein kinase MARK1 (Homo sapiens) (UniProt Q9P0L2); details: Compound concentration 1000.0 nM
[15] = molecular target: Dual specificity mitogen-activated protein kinase kinase 7 (Homo sapiens) (UniProt O14733); details: Compound concentration 1000.0 nM
[16] = molecular target: Mitogen-activated protein kinase kinase kinase 10 (Homo sapiens) (UniProt Q02779); details: Compound concentration 1000.0 nM
[17] = molecular target: Serine/threonine-protein kinase MRCK alpha (Homo sapiens) (UniProt Q5VT25); details: Compound concentration 1000.0 nM
[18] = molecular target: Serine/threonine-protein kinase NIM1 (Homo sapiens) (UniProt Q8IY84); details: Compound concentration 1000.0 nM
[19] = molecular target: Serine/threonine-protein kinase PAK 6 (Homo sapiens) (UniProt Q9NQU5); details: Compound concentration 1000.0 nM
[20] = system: Phosphatidylinositol 4,5-bisphosphate 3-kinase catalytic subunit alpha isoform (Homo sapiens), P42336 [H1047Y]; details: Compound concentration 1000.0 nM
[21] = molecular target: Phosphatidylinositol 4,5-bisphosphate 3-kinase catalytic subunit beta isoform (Homo sapiens) (UniProt P42338); details: Compound concentration 1000.0 nM
[22] = molecular target: cAMP-dependent protein kinase catalytic subunit beta (Homo sapiens) (UniProt P22694); details: Compound concentration 1000.0 nM
[23] = molecular target: Serine/threonine-protein kinase PLK1 (Homo sapiens) (UniProt P53350); details: Compound concentration 1000.0 nM
[24] = molecular target: Protein kinase C iota type (Homo sapiens) (UniProt P41743); details: Compound concentration 1000.0 nM
[25] = molecular target: RAF proto-oncogene serine/threonine-protein kinase (Homo sapiens) (UniProt P04049); details: Compound concentration 1000.0 nM
[26] = molecular target: Ribosomal protein S6 kinase alpha-3 (Homo sapiens) (UniProt P51812); details: Compound concentration 1000.0 nM
[27] = molecular target: Ribosomal protein S6 kinase alpha-3 (Homo sapiens) (UniProt P51812); details: Compound concentration 1000.0 nM; remark: listed apart in the source
[28] = molecular target: Ribosomal protein S6 kinase alpha-2 (Homo sapiens) (UniProt Q15349); details: Compound concentration 1000.0 nM
[29] = molecular target: Serine/threonine-protein kinase SIK2 (Homo sapiens) (UniProt Q9H0K1); details: Compound concentration 1000.0 nM
[30] = molecular target: SNF-related serine/threonine-protein kinase (Homo sapiens) (UniProt Q9NRH2); details: Compound concentration 1000.0 nM
[31] = molecular target: Mitogen-activated protein kinase kinase kinase 7 (Homo sapiens) (UniProt O43318); details: Compound concentration 1000.0 nM
[32] = molecular target: TGF-beta receptor type-1 (Homo sapiens) (UniProt P36897); details: Compound concentration 1000.0 nM
[33] = molecular target: NT-3 growth factor receptor (Homo sapiens) (UniProt Q16288); details: Compound concentration 1000.0 nM
[34] = molecular target: Non-receptor tyrosine-protein kinase TYK2 (Homo sapiens) (UniProt P29597); details: Compound concentration 1000.0 nM
[35] = molecular target: Mitogen-activated protein kinase kinase kinase 19 (Homo sapiens) (UniProt Q56UN5); details: Compound concentration 1000.0 nM
[36] = molecular target: 5-hydroxytryptamine receptor 7 (Homo sapiens) (UniProt P34969); details: Compound concentration 10.0 uM
[37] = molecular target: T1, Muscarinic acetylcholine receptor M5 (Homo sapiens) (UniProt P08912); details: Compound concentration 10.0 uM
T1 sequence (whole entry): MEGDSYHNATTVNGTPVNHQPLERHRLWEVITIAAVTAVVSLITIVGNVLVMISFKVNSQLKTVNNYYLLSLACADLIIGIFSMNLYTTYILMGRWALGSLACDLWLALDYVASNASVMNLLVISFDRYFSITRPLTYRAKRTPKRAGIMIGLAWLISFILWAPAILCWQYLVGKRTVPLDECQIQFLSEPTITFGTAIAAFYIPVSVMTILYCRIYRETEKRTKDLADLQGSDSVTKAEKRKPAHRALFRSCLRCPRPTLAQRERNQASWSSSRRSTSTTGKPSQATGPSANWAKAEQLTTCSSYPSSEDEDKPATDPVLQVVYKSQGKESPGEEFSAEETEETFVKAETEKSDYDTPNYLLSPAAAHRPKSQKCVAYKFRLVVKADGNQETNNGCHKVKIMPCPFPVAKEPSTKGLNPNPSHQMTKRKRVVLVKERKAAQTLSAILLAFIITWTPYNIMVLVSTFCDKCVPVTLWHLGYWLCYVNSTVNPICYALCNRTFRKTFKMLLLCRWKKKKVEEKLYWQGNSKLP

Sigma non-opioid intracellular receptor 1, sequence (Q99720 whole entry): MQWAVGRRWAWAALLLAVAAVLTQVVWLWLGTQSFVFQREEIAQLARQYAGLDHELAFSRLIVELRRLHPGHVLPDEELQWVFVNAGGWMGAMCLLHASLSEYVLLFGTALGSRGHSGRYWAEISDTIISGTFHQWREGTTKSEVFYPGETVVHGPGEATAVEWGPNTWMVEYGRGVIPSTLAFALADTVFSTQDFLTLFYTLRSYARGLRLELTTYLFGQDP
Ribosomal protein S6 kinase alpha-3 (Homo sapiens), sequence (P51812 whole entry): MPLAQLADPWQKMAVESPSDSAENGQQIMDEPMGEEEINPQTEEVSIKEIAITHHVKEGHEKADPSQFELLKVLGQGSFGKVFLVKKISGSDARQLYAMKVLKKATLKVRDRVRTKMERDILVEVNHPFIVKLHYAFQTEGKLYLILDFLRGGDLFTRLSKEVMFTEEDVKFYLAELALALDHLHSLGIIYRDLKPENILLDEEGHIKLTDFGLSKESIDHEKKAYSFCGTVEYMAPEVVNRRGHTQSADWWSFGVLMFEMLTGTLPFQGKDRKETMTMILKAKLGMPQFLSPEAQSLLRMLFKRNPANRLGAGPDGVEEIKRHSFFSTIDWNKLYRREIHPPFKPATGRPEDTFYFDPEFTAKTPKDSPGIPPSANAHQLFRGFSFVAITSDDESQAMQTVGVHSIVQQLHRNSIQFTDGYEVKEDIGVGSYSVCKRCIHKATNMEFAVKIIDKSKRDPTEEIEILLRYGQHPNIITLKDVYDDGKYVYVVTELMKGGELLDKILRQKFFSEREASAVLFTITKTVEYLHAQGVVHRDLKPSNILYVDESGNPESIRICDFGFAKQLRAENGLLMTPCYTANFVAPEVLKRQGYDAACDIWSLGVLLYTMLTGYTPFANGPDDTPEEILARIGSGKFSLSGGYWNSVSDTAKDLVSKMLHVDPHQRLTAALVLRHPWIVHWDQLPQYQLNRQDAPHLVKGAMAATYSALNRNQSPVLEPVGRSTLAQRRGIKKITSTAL
Tyrosine-protein kinase JAK3 (Homo sapiens), sequence (P52333 whole entry): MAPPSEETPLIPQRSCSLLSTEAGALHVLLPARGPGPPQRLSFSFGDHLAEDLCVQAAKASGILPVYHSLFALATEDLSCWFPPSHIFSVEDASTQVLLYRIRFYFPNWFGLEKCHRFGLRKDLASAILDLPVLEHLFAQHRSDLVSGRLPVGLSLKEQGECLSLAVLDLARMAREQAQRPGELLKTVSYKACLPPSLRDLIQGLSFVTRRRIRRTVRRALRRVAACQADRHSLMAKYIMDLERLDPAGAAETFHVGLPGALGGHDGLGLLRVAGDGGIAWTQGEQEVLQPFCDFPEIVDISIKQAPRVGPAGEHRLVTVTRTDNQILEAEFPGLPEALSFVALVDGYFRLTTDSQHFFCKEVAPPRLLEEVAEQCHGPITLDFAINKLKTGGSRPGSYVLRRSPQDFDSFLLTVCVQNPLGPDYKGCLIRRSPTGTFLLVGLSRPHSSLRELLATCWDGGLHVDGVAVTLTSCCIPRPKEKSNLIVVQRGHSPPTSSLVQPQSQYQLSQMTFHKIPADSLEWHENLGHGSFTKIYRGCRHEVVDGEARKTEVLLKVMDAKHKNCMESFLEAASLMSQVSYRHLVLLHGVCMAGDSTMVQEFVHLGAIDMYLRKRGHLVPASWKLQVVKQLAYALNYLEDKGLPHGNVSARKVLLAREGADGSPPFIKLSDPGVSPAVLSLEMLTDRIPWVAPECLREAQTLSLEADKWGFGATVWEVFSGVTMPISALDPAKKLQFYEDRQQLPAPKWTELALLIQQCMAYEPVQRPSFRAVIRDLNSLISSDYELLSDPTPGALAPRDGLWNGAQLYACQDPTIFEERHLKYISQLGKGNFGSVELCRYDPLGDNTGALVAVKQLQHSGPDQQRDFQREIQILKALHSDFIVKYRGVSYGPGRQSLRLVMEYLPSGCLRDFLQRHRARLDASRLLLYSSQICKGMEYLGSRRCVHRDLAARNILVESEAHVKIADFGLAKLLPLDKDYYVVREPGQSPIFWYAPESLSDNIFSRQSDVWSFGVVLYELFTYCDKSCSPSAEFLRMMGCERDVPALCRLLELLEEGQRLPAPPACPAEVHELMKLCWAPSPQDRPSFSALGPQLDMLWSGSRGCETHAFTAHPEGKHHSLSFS
Tyrosine-protein kinase ITK/TSK (Homo sapiens), sequence (Q08881 whole entry): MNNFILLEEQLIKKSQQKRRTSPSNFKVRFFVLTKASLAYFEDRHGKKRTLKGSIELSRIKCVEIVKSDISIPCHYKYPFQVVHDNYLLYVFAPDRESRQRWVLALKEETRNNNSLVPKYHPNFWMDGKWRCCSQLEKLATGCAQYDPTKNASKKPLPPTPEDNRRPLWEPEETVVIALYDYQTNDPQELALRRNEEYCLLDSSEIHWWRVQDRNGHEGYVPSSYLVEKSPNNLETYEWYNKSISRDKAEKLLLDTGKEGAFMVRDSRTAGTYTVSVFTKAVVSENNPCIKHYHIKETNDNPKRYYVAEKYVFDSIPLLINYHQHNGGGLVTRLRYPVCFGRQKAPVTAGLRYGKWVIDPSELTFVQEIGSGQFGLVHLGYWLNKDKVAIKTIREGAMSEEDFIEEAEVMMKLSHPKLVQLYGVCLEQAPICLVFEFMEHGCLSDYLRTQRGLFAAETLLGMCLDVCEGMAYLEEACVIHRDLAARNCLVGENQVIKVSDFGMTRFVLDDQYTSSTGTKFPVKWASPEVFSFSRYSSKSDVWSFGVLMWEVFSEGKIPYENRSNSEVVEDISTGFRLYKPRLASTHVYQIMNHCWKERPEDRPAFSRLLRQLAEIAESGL
RAF proto-oncogene serine/threonine-protein kinase (Homo sapiens), sequence (P04049 whole entry): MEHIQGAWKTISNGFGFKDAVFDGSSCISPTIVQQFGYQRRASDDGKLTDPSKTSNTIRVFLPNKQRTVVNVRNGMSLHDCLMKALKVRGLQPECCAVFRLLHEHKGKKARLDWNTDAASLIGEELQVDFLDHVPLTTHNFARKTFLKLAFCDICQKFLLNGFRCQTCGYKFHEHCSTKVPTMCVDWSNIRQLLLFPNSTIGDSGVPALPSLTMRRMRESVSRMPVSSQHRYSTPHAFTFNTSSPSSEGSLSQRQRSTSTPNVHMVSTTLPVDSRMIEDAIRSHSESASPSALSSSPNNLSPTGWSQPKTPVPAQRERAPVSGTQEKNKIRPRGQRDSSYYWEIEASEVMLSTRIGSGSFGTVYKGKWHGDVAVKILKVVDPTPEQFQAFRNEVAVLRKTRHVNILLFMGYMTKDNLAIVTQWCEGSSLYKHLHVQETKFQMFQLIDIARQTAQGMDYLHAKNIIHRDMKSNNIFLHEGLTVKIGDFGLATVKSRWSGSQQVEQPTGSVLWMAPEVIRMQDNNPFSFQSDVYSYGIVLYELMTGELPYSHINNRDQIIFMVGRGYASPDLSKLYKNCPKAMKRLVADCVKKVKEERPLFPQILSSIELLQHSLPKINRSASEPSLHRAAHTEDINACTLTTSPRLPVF
Mitogen-activated protein kinase kinase kinase 19 (Homo sapiens), sequence (Q56UN5 whole entry): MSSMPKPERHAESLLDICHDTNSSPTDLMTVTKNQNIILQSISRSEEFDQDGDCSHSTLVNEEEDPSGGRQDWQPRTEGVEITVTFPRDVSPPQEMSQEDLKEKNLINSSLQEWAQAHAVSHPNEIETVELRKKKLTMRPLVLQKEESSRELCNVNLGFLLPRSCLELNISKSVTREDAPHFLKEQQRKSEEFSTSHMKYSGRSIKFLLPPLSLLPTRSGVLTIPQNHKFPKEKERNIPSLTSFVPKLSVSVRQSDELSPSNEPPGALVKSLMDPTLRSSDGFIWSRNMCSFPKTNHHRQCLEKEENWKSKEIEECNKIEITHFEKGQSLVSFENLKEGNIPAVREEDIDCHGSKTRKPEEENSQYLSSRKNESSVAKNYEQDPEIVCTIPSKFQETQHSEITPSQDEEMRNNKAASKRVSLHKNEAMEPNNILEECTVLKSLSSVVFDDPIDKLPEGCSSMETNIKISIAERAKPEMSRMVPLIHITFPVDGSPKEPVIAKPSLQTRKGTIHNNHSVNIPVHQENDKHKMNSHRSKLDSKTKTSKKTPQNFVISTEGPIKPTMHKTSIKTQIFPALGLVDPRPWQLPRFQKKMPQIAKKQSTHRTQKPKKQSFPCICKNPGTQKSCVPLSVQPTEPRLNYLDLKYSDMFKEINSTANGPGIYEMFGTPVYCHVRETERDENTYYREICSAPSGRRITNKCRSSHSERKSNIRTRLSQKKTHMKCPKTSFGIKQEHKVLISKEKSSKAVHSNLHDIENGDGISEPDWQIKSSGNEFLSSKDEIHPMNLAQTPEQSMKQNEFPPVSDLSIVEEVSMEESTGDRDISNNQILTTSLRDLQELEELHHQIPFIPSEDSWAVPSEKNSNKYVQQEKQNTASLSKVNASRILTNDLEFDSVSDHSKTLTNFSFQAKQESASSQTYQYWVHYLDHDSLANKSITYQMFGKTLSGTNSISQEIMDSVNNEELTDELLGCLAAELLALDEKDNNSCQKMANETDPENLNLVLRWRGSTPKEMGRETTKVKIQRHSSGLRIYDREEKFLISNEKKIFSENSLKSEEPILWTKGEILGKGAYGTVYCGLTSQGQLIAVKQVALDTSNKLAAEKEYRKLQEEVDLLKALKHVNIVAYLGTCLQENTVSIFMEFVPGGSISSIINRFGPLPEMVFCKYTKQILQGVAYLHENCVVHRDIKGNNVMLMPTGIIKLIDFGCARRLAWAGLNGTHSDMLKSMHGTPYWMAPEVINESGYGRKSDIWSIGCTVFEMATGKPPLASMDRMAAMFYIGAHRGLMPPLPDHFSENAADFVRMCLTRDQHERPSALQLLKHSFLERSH
Cyclin-dependent kinase 4 (Homo sapiens), sequence (P11802 whole entry): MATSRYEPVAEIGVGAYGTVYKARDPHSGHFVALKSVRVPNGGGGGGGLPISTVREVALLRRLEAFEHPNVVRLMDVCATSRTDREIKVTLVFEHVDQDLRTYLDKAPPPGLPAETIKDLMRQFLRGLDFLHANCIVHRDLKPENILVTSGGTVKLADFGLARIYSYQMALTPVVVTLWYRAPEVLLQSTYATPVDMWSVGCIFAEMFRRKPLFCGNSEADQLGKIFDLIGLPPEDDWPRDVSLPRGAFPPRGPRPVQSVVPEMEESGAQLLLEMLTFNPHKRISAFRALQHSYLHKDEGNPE

`CCC(=N\O)/C(C)=C/c1ccc(F)c(C)c1` [A-226] gave a pKi [1] of 6.28, a residual activity [2] of 100% and a residual activity [3] of 100%. For the same molecule, the residual activity [4] was 100%, the residual activity [5] was 100% and the residual activity [6] was 80%. For the same molecule, the residual activity [7] was 100%, the residual activity [8] was 85% and the residual activity [9] was 80%. It also gave a residual activity [10] of 91%, a residual activity [11] of 100% and a residual activity [12] of 91%. For the same molecule, the residual activity [13] was 94%, the residual activity [14] was 99% and the residual activity [15] was 100%. The residual activity [16] was 75%, the residual activity [17] was 100% and the residual activity [18] was 100%. For the same molecule, the residual activity [19] was 100%, the residual activity [20] was 100% and the residual activity [21] was 100%. The residual activity [22] was 100%, the residual activity [23] was 82% and the residual activity [24] was 99%. The residual activity [25] was 99%, the residual activity [26] was 100% and the residual activity [27] was 100%. For the same molecule, the residual activity [28] was 100%, the residual activity [29] was 100% and the residual activity [30] was 100%. It also gave a residual activity [31] of 99%, a residual activity [32] of 88% and a residual activity [33] of 100%. For the same molecule, the residual activity [34] was 100%, the residual activity [35] was 98% and the inhibition [36] was -0.42%. The inhibition [37] was 2.77%.
`CCC(=N\O)/C(C)=C/c1ccc(F)cc1` [A-079] gave a pKi [1] of 6.30, a Ki ([1]; read-out: pKi (converted)) of 457 nM and a residual activity [2] of 52%. For the same molecule, the residual activity [3] was 100%, the residual activity [4] was 80% and the residual activity [5] was 79%. It also gave a residual activity [6] of 87%, a residual activity [7] of 100% and a residual activity [8] of 97%. It also gave a residual activity [9] of 100%, a residual activity [10] of 79% and a residual activity [11] of 83%. For the same molecule, the residual activity [12] was 90%, the residual activity [13] was 80% and the residual activity [14] was 100%. The residual activity [15] was 79%, the residual activity [16] was 100% and the residual activity [17] was 100%. It also gave a residual activity [18] of 94%, a residual activity [19] of 100% and a residual activity [20] of 82%. It also gave a residual activity [21] of 99%, a residual activity [22] of 89% and a residual activity [23] of 93%. For the same molecule, the residual activity [24] was 74%, the residual activity [25] was 91% and the residual activity [26] was 81%. The residual activity [27] was 100%, the residual activity [28] was 100% and the residual activity [29] was 100%. For the same molecule, the residual activity [30] was 100%, the residual activity [31] was 81% and the residual activity [32] was 85%. The residual activity [33] was 88%, the residual activity [34] was 72% and the residual activity [35] was 66%. The inhibition [36] was 8.18% and the inhibition [37] was 6.68%.
